Assay results as given in patent US11339419B2, “Scavenger protein(s) for improved preservation of analyte detection sensor(s) and method(s) of use thereof” (Siemens Healthcare Diagnostics Inc., priority 2017, dated 2022).
Values joined by “and” are separate entries in the source; they are usually repeats but may differ in a detail not shown here. Equal entries are not always repeated.

Key:
Type in all cases: biochemical
[1] = system: sarcosine oxidase (Toyobo); assay: Toyobo Sarcosine Oxidase Enzyme Absorbance with BSA and MIT; details: 0 mg/mL BSA; for Sarcosine Oxidase Enzyme Absorbance, MEAN of 1-5 / Sarcosine Oxidase Enzyme Absorbance, solutions 1-5: 37° C.
Experimental: (§1) Tables 1-4 depict aqueous solutions comprising varying concentrations of BSA (at concentrations of 0 mg/mL, 5 mg/mL, 25 mg/mL, and 50 mg/mL), varying concentrations of MIT (at concentrations of 50 parts per million and 100 parts per million) or Proclin™ 300 (at concentrations of 0.7% and 1.4%) biocides over a particular time period (measurements were taken at days 0, 4, and 14 after exposure of the enzyme(s) to the aqueous solutions) and the associated enzyme absorbance measurements for sarcosine oxidase (commercially offered for sale by BBI Solutions and Toyobo). Absorbance measurements of the sarcosine oxidase enzyme(s) were taken via spectrophotometer for each aqueous solution (represented as columns 1-5 in Tables 1-4—column 6 is a blank), the absorbance being directly proportional to the enzyme activity being measured-which for Tables 1-4 is sarcosine oxidase enzyme activity. Accordingly, the higher the absorbance measurement, the higher the enzyme activity of sarcosine oxidase. Columns 7-11 represent five replicate readings in which the aqueous solution only contains BSA (i.e., there is no biocide(s) present in the aqueous solution). In addition, the mean values, standard deviations, and coefficients of variation are also presented for the enzyme activity/absorbance of each aqueous solution. All measurements were taken at 37° C.
As depicted below in Table 2, sarcosine oxidase (commercially offered for sale by Toyobo) enzyme activity is measured against various concentrations of MIT (biocide) and BSA (scavenger protein) over a period of 14 days (with absorbance measurements taken at 0, 4, and 14 days) for five different aqueous solutions (represented as columns 1-5-column 6 is a blank).

[2] = system: sarcosine oxidase (BBI Solutions); assay: BBI Solutions Sarcosine Oxidase Enzyme Absorbance with BSA and MIT; details: 0 mg/mL BSA; for Sarcosine Oxidase Enzyme Absorbance, MEAN of 1-5 / Sarcosine Oxidase Enzyme Absorbance, solutions 1-5: 37° C.
Experimental: as §1
As depicted below in Table 1, sarcosine oxidase (commercially offered for sale by BBI Solutions) enzyme activity is measured against various concentrations of MIT (biocide) and BSA (scavenger protein) over a period of 14 days (with absorbance measurements taken at 0, 4, and 14 days) for five different aqueous solutions (represented as columns 1-5—column 6 is a blank).

creatininase (Toyobo) = assay: Toyobo Creatininase Enzyme Absorbance with BSA and MIT; details: 0 mg/mL BSA
Text: Absorbance measurements of the creatininase enzyme(s) were taken via spectrophotometer for each aqueous solution (represented as columns 1-5 in Tables 5-8—column 6 is a blank), the absorbance being directly proportional to the enzyme activity being measured-which for Tables 5-8 is creatininase enzyme activity. Accordingly, the higher the absorbance measurement, the higher the enzyme activity of creatininase. Columns 7-11 represent five replicate readings in which the solution only contains BSA (i.e., there is no biocide(s) present in the solution). In addition, the mean values, standard deviations, and coefficients of variation are all presented for the enzyme activity/absorbance of each aqueous solution. All measurements were taken at 37° C.
As depicted in Table 6, creatininase (commercially offered for sale by Toyobo) enzyme activity is measured against various concentrations of MIT (biocide) and BSA (scavenger protein) over a period of 14 days (with absorbance measurement taken at 0, 4, and 14 days) for five different aqueous solutions (represented as columns 1-5—column 6 is a blank).

[3] = system: creatininase (BBI Solutions); assay: BBI Solutions Creatininase Enzyme Absorbance with BSA and MIT; details: 0 mg/mL BSA
Experimental: Table 5-8 depict aqueous solutions comprising varying concentrations of BSA (at concentrations of 0 mg/mL, 5 mg/mL, 25 mg/mL, and 50 mg/mL), varying concentrations of MIT (at concentrations of 50 parts per million and 100 parts per million) or Proclin™ 300 (at concentrations of 0.7% and 1.4%) biocide over a particular time period (measurements were taken at days 0, 4, and 14 after exposure of the enzyme(s) to the particular aqueous solutions) and the associated enzyme absorbance measurements for creatininase (commercially offered for sale by BBI Solutions and Toyobo). Absorbance measurements of the creatininase enzyme(s) were taken via spectrophotometer for each aqueous solution (represented as columns 1-5 in Tables 5-8—column 6 is a blank), the absorbance being directly proportional to the enzyme activity being measured-which for Tables 5-8 is creatininase enzyme activity. Accordingly, the higher the absorbance measurement, the higher the enzyme activity of creatininase. Columns 7-11 represent five replicate readings in which the solution only contains BSA (i.e., there is no biocide(s) present in the solution). In addition, the mean values, standard deviations, and coefficients of variation are all presented for the enzyme activity/absorbance of each aqueous solution. All measurements were taken at 37° C.
As depicted in Table 5, creatininase (commercially offered for sale by BBI Solutions) enzyme activity is measured against various concentrations of MIT (biocide) and BSA (scavenger protein) over a period of 14 days (with absorbance measurement taken at 0, 4, and 14 days) for five different aqueous solutions (represented as columns 1-5—column 6 is a blank).

With `Cn1sccc1=O` [MIT, methylisothiazolinone, reference compound] the “% Bias” value ([1]; Day 0, 50 ppm MIT vs no MIT) was 0.8%, the “Sarcosine Oxidase Enzyme Absorbance, MEAN of 1-5” value ([1]; Day 0, 50 ppm MIT) was 1.42 and the “Sarcosine Oxidase Enzyme Absorbance, solutions 1-5” value ([1]; Day 0, 50 ppm MIT) was 1.463 and 1.462 and 1.447 and 1.446. The “% Bias” value ([1]; Day 0, 100 ppm MIT vs no MIT) was 2.6%, the “Sarcosine Oxidase Enzyme Absorbance, MEAN of 1-5” value ([1]; Day 0, 100 ppm MIT) was 1.44 and the “Sarcosine Oxidase Enzyme Absorbance, solutions 1-5” value ([1]; Day 0, 100 ppm MIT) was 1.491 and 1.45 and 1.5 and 1.478 and 1.464. For the same molecule, the “% Bias” value ([1]; Day 4, 50 ppm MIT vs no MIT) was 101.5%, the “Sarcosine Oxidase Enzyme Absorbance, MEAN of 1-5” value ([1]; Day 4, 50 ppm MIT) was 0.25 and the “Sarcosine Oxidase Enzyme Absorbance, solutions 1-5” value ([1]; Day 4, 50 ppm MIT) was 0.277 and 0.275 and 0.272 and 0.283 and 0.282. For the same molecule, the “% Bias” value ([1]; Day 4, 100 ppm MIT vs no MIT) was 115.9%, the “Sarcosine Oxidase Enzyme Absorbance, MEAN of 1-5” value ([1]; Day 4, 100 ppm MIT) was 0.27 and the “Sarcosine Oxidase Enzyme Absorbance, solutions 1-5” value ([1]; Day 4, 100 ppm MIT) was 0.302 and 0.304 and 0.298 and 0.317. The “% Bias” value ([1]; Day 14, 50 ppm MIT vs no MIT) was 7.4%, the “Sarcosine Oxidase Enzyme Absorbance, MEAN of 1-5” value ([1]; Day 14, 50 ppm MIT) was 0.11 and the “Sarcosine Oxidase Enzyme Absorbance, solutions 1-5” value ([1]; Day 14, 50 ppm MIT) was 0.154 and 0.153 and 0.151 and 0.159 and 0.16. For the same molecule, the “% Bias” value ([1]; Day 14, 100 ppm MIT vs no MIT) was 8.8%, the “Sarcosine Oxidase Enzyme Absorbance, MEAN of 1-5” value ([1]; Day 14, 100 ppm MIT) was 0.13 and the “Sarcosine Oxidase Enzyme Absorbance, solutions 1-5” value ([1]; Day 14, 100 ppm MIT) was 0.163 and 0.176 and 0.168 and 0.172. For the same molecule, the “% Bias” value ([2]; Day 0, 50 ppm MIT vs no MIT) was 3.8%, the “Sarcosine Oxidase Enzyme Absorbance, MEAN of 1-5” value ([2]; Day 0, 50 ppm MIT) was 1.43 and the “Sarcosine Oxidase Enzyme Absorbance, solutions 1-5” value ([2]; Day 0, 50 ppm MIT) was 1.463 and 1.459 and 1.507 and 1.474 and 1.477. The “% Bias” value ([2]; Day 0, 100 ppm MIT vs no MIT) was 1.3%, the “Sarcosine Oxidase Enzyme Absorbance, MEAN of 1-5” value ([2]; Day 0, 100 ppm MIT) was 1.39 and the “Sarcosine Oxidase Enzyme Absorbance, solutions 1-5” value ([2]; Day 0, 100 ppm MIT) was 1.446 and 1.428 and 1.422 and 1.427 and 1.423. For the same molecule, the “% Bias” value ([2]; Day 4, 50 ppm MIT vs no MIT) was 1.5%, the “Sarcosine Oxidase Enzyme Absorbance, MEAN of 1-5” value ([2]; Day 4, 50 ppm MIT) was 1.35 and the “Sarcosine Oxidase Enzyme Absorbance, solutions 1-5” value ([2]; Day 4, 50 ppm MIT) was 1.388 and 1.397 and 1.401 and 1.346 and 1.368. The “% Bias” value ([2]; Day 4, 100 ppm MIT vs no MIT) was 2.0%, the “Sarcosine Oxidase Enzyme Absorbance, MEAN of 1-5” value ([2]; Day 4, 100 ppm MIT) was 1.35 and the “Sarcosine Oxidase Enzyme Absorbance, solutions 1-5” value ([2]; Day 4, 100 ppm MIT) was 1.38 and 1.379 and 1.384 and 1.353. The “% Bias” value ([2]; Day 14, 50 ppm MIT vs no MIT) was −8.8%, the “Sarcosine Oxidase Enzyme Absorbance, MEAN of 1-5” value ([2]; Day 14, 50 ppm MIT) was 0.24 and the “Sarcosine Oxidase Enzyme Absorbance, solutions 1-5” value ([2]; Day 14, 50 ppm MIT) was 0.272 and 0.267 and 0.265 and 0.283 and 0.286. For the same molecule, the “% Bias” value ([2]; Day 14, 100 ppm MIT vs no MIT) was −34.1%, the “Sarcosine Oxidase Enzyme Absorbance, MEAN of 1-5” value ([2]; Day 14, 100 ppm MIT) was 0.18 and the “Sarcosine Oxidase Enzyme Absorbance, solutions 1-5” value ([2]; Day 14, 100 ppm MIT) was 0.218 and 0.215 and 0.21 and 0.214 and 0.219. For the same molecule, the “% Bias” value (creatininase (Toyobo); Day 0, 50 ppm MIT vs no MIT) was 10.4%, the “Creatininase Enzyme Absorbance” value (creatininase (Toyobo); Day 0, 50 ppm MIT) was 0.846 and 0.775 and 0.735 and 0.721 and 0.713 and the “MEAN” value (creatininase (Toyobo); Day 0, 50 ppm MIT) was 0.56. For the same molecule, the “% Bias” value (creatininase (Toyobo); Day 0, 100 ppm MIT vs no MIT) was 3.8%, the “Creatininase Enzyme Absorbance” value (creatininase (Toyobo); Day 0, 100 ppm MIT) was 0.937 and 0.871 and 0.866 and 0.827 and 0.836 and the “MEAN” value (creatininase (Toyobo); Day 0, 100 ppm MIT) was 0.67. The “% Bias” value (creatininase (Toyobo); Day 4, 50 ppm MIT vs no MIT) was 12.2%, the “Creatininase Enzyme Absorbance” value (creatininase (Toyobo); Day 4, 50 ppm MIT) was 0.777 and 0.754 and 0.767 and 0.743 and 0.77 and the “MEAN” value (creatininase (Toyobo); Day 4, 50 ppm MIT) was 0.55. The “% Bias” value (creatininase (Toyobo); Day 4, 100 ppm MIT vs no MIT) was 9.8%, the “Creatininase Enzyme Absorbance” value (creatininase (Toyobo); Day 4, 100 ppm MIT) was 0.745 and 0.768 and 0.763 and 0.748 and 0.792 and the “MEAN” value (creatininase (Toyobo); Day 4, 100 ppm MIT) was 0.55. For the same molecule, the “% Bias” value (creatininase (Toyobo); Day 14, 50 ppm MIT vs no MIT) was 9.3%, the “Creatininase Enzyme Absorbance” value (creatininase (Toyobo); Day 14, 50 ppm MIT) was 0.828 and 0.801 and 0.702 and 0.794 and 0.79 and the “MEAN” value (creatininase (Toyobo); Day 14, 50 ppm MIT) was 0.55. The “% Bias” value (creatininase (Toyobo); Day 14, 100 ppm MIT vs no MIT) was 5.1%, the “Creatininase Enzyme Absorbance” value (creatininase (Toyobo); Day 14, 100 ppm MIT) was 0.794 and 0.774 and 0.784 and 0.73 and 0.78 and the “MEAN” value (creatininase (Toyobo); Day 14, 100 ppm MIT) was 0.54. The “% Bias” value ([3]; Day 0, 50 ppm MIT vs no MIT) was 4.1%, the “Creatininase Enzyme Absorbance” value ([3]; Day 0, 50 ppm MIT) was 0.663 and 0.662 and 0.668 and 0.62 and 0.649 and the “MEAN” value ([3]; Day 0, 50 ppm MIT) was 0.45. The “% Bias” value ([3]; Day 0, 100 ppm MIT vs no MIT) was 0.7%, the “Creatininase Enzyme Absorbance” value ([3]; Day 0, 100 ppm MIT) was 0.765 and 0.721 and 0.731 and 0.712 and 0.723 and the “MEAN” value ([3]; Day 0, 100 ppm MIT) was 0.53. The “% Bias” value ([3]; Day 4, 50 ppm MIT vs no MIT) was 3.3%, the “Creatininase Enzyme Absorbance” value ([3]; Day 4, 50 ppm MIT) was 0.654 and 0.633 and 0.52 and 0.638 and the “MEAN” value ([3]; Day 4, 50 ppm MIT) was 0.41. The “% Bias” value ([3]; Day 4, 100 ppm MIT vs no MIT) was −2.3%, the “Creatininase Enzyme Absorbance” value ([3]; Day 4, 100 ppm MIT) was 0.616 and 0.604 and 0.597 and 0.523 and the “MEAN” value ([3]; Day 4, 100 ppm MIT) was 0.38. The “% Bias” value ([3]; Day 14, 50 ppm MIT vs no MIT) was −6.5%, the “Creatininase Enzyme Absorbance” value ([3]; Day 14, 50 ppm MIT) was 0.732 and 0.689 and 0.701 and 0.686 and 0.725 and the “MEAN” value ([3]; Day 14, 50 ppm MIT) was 0.44. The “% Bias” value ([3]; Day 14, 100 ppm MIT vs no MIT) was 7.0%, the “Creatininase Enzyme Absorbance” value ([3]; Day 14, 100 ppm MIT) was 0.755 and 0.699 and 0.714 and 0.707 and 0.716 and the “MEAN” value ([3]; Day 14, 100 ppm MIT) was 0.45.
